Data from patent publication US20220323406A1, “METHODS AND COMPOSITIONS FOR DIFFERENTIATING STEM CELLS” (Massachusetts Institute of Technology, priority 2019, published 2022).

How the values were obtained:
[1] = tested on: ENR+CD organoids (ISC to Paneth cell differentiation); assay: Primary screen: basal (non-stimulated) lysozyme secretion LYZ.NS, 2.5-D 384-well ENR+CD organoid differentiation; type: cell-based, mouse
Description: (§1) High-throughput screening.

ENR+CD organoids = assay: Primary screen: ATP (CellTiter-Glo 3D, CTG) cell number/viability, 2.5-D 384-well ENR+CD organoids; conditions: primary screen; for Z.CTG: standard z score;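 for all read-outs here: compounds given at plating and again on day 3 over a 6-day differentiation from ENR+CV stem-cell-enriched precursors, ATP measured on day 6, plate median as control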
[2] = tested on: ENR+CD organoids (ISC to Paneth cell differentiation); assay: Primary screen: CCh-stimulated lysozyme secretion LYZ.S, 2.5-D 384-well ENR+CD organoid differentiation; type: cell-based, mouse; conditions: primary screen
Description: as §1

[3] = primary screen, dose 0.08 uM, FC relative to plate median
[4] = primary screen, dose 0.08 uM, standard z score
[5] = primary screen, dose 0.40 uM, FC relative to plate median
[6] = primary screen, dose 0.40 uM, standard z score
[7] = primary screen, dose 2.00 uM, FC relative to plate median
[8] = primary screen, dose 2.00 uM, standard z score
[9] = primary screen, dose 10.00 uM, FC relative to plate median
[10] = primary screen, dose 10.00 uM, standard z score
[11] = dose 0.08 uM, FC relative to plate median
[12] = dose 0.40 uM, FC relative to plate median
[13] = dose 2.00 uM, FC relative to plate median
[14] = dose 10.00 uM, FC relative to plate median
[15] = primary screen; dose 0.08 uM; FC vs plate median
[16] = primary screen; dose 0.40 uM; FC vs plate median
[17] = primary screen; dose 2.00 uM; FC vs plate median
[18] = dose 0.08 uM, FC vs plate median
[19] = dose 0.40 uM, FC vs plate median
[20] = dose 2.00 uM, FC vs plate median
[21] = dose 10.00 uM, FC vs plate median

Structure (SMILES) | Dose.FC.LYZ.NS [1, 3] | Z.LYZ.NS [1, 4] | Dose.FC.LYZ.NS [1, 5] | Z.LYZ.NS [1, 6] | Dose.FC.LYZ.NS [1, 7] | Z.LYZ.NS [1, 8] | Dose.FC.LYZ.NS [1, 9] | Z.LYZ.NS [1, 10] | Dose.FC.CTG (ENR+CD organoids; [11]) | Z.CTG (ENR+CD organoids; dose 0.08 uM) | Dose.FC.CTG (ENR+CD organoids; [12]) | Z.CTG (ENR+CD organoids; dose 0.40 uM) | Dose.FC.CTG (ENR+CD organoids; [13]) | Z.CTG (ENR+CD organoids; dose 2.00 uM) | Dose.FC.CTG (ENR+CD organoids; [14]) | Z.CTG (ENR+CD organoids; dose 10.00 uM) | Dose.FC.LYZ.S [2, 11] | Dose.FC.LYZ.S [2, 12] | Dose.FC.LYZ.S [2, 13] | Dose.FC.LYZ.S [2, 14] | also measured
Cl.NC(=O)c1cnc(N[C@@H]2CCCC[C@@H]2N)nc1Nc1cccc(-n2nccn2)c1 [PRT062607 (P505-15, BIIB057) HCl] | 0.004 log2 fold change | 0.037 | 0.022 log2 fold change | 0.194 | −0.032 log2 fold change | −0.280 | −0.211 log2 fold change | −1.837 | −0.092 log2 fold change | −0.219 | 0.080 log2 fold change | 0.191 | −0.075 log2 fold change | −0.179 | −0.330 log2 fold change | −0.788 | −0.033 log2 fold change | 0.122 log2 fold change | −0.123 log2 fold change | −0.298 log2 fold change | –
CC(C)(C)n1nc(-c2ccc(Cl)cc2)c2c(N)ncnc21 [PP2] | – | 0.285 | – | 0.104 | – | 2.354 | −0.027 log2 fold change | −0.235 | – | −1.655 | – | 0.312 | – | −0.913 | −0.246 log2 fold change | −0.587 | – | – | – | 0.027 log2 fold change | Dose.FC.LYZ.NS [1, 15]: 0.033 log2 fold change; Dose.FC.LYZ.NS [1, 16]: 0.012 log2 fold change; Dose.FC.LYZ.NS [1, 17]: 0.270 log2 fold change; Dose.FC.CTG (ENR+CD organoids; [18]): −0.693 log2 fold change; Dose.FC.CTG (ENR+CD organoids; [19]): 0.130 log2 fold change; Dose.FC.CTG (ENR+CD organoids; [20]): −0.382 log2 fold change; Dose.FC.LYZ.S [2, 18]: 0.058 log2 fold change; Dose.FC.LYZ.S [2, 19]: 0.145 log2 fold change; Dose.FC.LYZ.S [2, 20]: 0.113 log2 fold change
C#Cc1cccc(Nc2ncnc3cc(OCCOC)c(OCCO)cc23)c1 [OSI-420] | – | 1.002 | – | −1.948 | – | −2.498 | – | −2.833 | – | 0.254 | – | −0.311 | – | −3.016 | – | −2.627 | – | – | – | – | Dose.FC.LYZ.NS [1, 15]: 0.115 log2 fold change; Dose.FC.LYZ.NS [1, 16]: −0.224 log2 fold change; Dose.FC.LYZ.NS [1, 17]: −0.287 log2 fold change; Dose.FC.LYZ.NS ([1]; primary screen; dose 10.00 uM; FC vs plate median): −0.325 log2 fold change; Dose.FC.CTG (ENR+CD organoids; [18]): 0.106 log2 fold change; Dose.FC.CTG (ENR+CD organoids; [19]): −0.130 log2 fold change; Dose.FC.CTG (ENR+CD organoids; [20]): −1.263 log2 fold change; Dose.FC.CTG (ENR+CD organoids; [21]): −1.100 log2 fold change; Dose.FC.LYZ.S [2, 18]: 0.059 log2 fold change; Dose.FC.LYZ.S [2, 19]: −0.221 log2 fold change; Dose.FC.LYZ.S [2, 20]: −0.381 log2 fold change; Dose.FC.LYZ.S [2, 21]: −0.374 log2 fold change
COc1ccc([C@]2(C#N)CC[C@@H](C(=O)O)CC2)cc1OC1CCCC1 [Cilomilast] | – | – | – | – | – | – | – | – | – | – | – | – | – | – | – | – | – | – | – | – | Dose.FC.LYZ.NS ([1]; primary screen, dose 0.08 uM): 0.114 log2 fold change; Dose.FC.LYZ.NS ([1]; primary screen, dose 0.40 uM): −0.037 log2 fold change; Dose.FC.LYZ.NS ([1]; primary screen, dose 2.00 uM): −0.010 log2 fold change; Dose.FC.LYZ.NS ([1]; primary screen, dose 10.00 uM): −0.043 log2 fold change; Z.LYZ.NS ([1]; primary screen, standard z score, dose 0.08 uM): 0.995; Z.LYZ.NS ([1]; primary screen, standard z score, dose 0.40 uM): −0.321; Z.LYZ.NS ([1]; primary screen, standard z score, dose 2.00 uM): −0.083; Z.LYZ.NS ([1]; primary screen, standard z score, dose 10.00 uM): −0.376; Dose.FC.CTG (ENR+CD organoids; dose 0.08 uM): −0.334 log2 fold change; Dose.FC.CTG (ENR+CD organoids; dose 0.40 uM): −0.338 log2 fold change; Dose.FC.CTG (ENR+CD organoids; dose 2.00 uM): −0.235 log2 fold change; Dose.FC.CTG (ENR+CD organoids; dose 10.00 uM): −0.192 log2 fold change; Dose.FC.LYZ.S ([2]; dose 0.08 uM): 0.115 log2 fold change; Dose.FC.LYZ.S ([2]; dose 0.40 uM): −0.109 log2 fold change; Dose.FC.LYZ.S ([2]; dose 2.00 uM): −0.083 log2 fold change; Dose.FC.LYZ.S ([2]; dose 10.00 uM): −0.045 log2 fold change
Cc1cc(NC(=O)Nc2ccc(N(C)C)cc2)c2cc(F)cc(F)c2n1 [SB408124] | 0.172 log2 fold change | 1.494 | 0.134 log2 fold change | 1.168 | 0.084 log2 fold change | 0.730 | −0.070 log2 fold change | −0.607 | 0.410 log2 fold change | 0.978 | 0.334 log2 fold change | 0.799 | 0.364 log2 fold change | 0.869 | 0.091 log2 fold change | 0.216 | 0.198 log2 fold change | 0.193 log2 fold change | 0.082 log2 fold change | −0.148 log2 fold change | –
N#Cc1ccc(C(c2ccc(C#N)cc2)n2cncn2)cc1 [Letrozole] | – | – | – | – | – | – | – | – | – | – | – | – | – | – | – | – | – | – | – | – | Dose.FC.LYZ.NS (log2 fold change) ([1]; primary screen, dose 0.08 uM): 0.065; Z.LYZ.NS (standard z score) ([1]; primary screen, dose 0.08 uM): 0.570; Dose.FC.LYZ.NS (log2 fold change) ([1]; primary screen, dose 0.40 uM): 0.128; Z.LYZ.NS (standard z score) ([1]; primary screen, dose 0.40 uM): 1.115; Dose.FC.LYZ.NS (log2 fold change) ([1]; primary screen, dose 2.00 uM): 0.009; Z.LYZ.NS (standard z score) ([1]; primary screen, dose 2.00 uM): 0.082; Dose.FC.LYZ.NS (log2 fold change) ([1]; primary screen, dose 10.00 uM): −0.008; Z.LYZ.NS (standard z score) ([1]; primary screen, dose 10.00 uM): −0.068; Dose.FC.CTG (log2 fold change) (ENR+CD organoids; dose 0.08 uM): −0.013; Dose.FC.CTG (log2 fold change) (ENR+CD organoids; dose 0.40 uM): 0.101; Dose.FC.CTG (log2 fold change) (ENR+CD organoids; dose 2.00 uM): 0.099; Dose.FC.CTG (log2 fold change) (ENR+CD organoids; dose 10.00 uM): 0.171; Dose.FC.LYZ.S (log2 fold change) ([2]; dose 0.08 uM): 0.040; Dose.FC.LYZ.S (log2 fold change) ([2]; dose 0.40 uM): 0.150; Dose.FC.LYZ.S (log2 fold change) ([2]; dose 2.00 uM): 0.006; Dose.FC.LYZ.S (log2 fold change) ([2]; dose 10.00 uM): 0.006
